Experimental data taken from patent US20100034836A1, “COMPOSITIONS AND METHODS FOR THE DIAGNOSIS AND ALLEVIATION OF TUMOR” (priority 2006, published 2010).

What was measured:
[1] = test system: tumor; settings: nude mouse tumor model (Teicher et al. 2002); cited from earlier work
[2] = test system: MEK1/2
Description: Experiments were performed to identify the TASK121 downstream signals that are important for TASK122 expression. A375, 928-MEL, COL0205 and SK23-MEL cell lines were characterized for TASK121 and RAS activating mutations and TASK122 expression was measured by immunoblotting of these tumors cells when cultured in the presence or absence of the MEK1/2 inhibitor, U0126 (Favata et al., J Biol Chem 273:18623-32 (1998)).

[3] = test system: ΔTASK121^V600E-ER cells; experiment: Morphological transformation of 3T3 cells upon 4OHT induction; type: cell-based; settings: 200 nM 4OHT, within 24 hours
[4] = biological target: ΔTASK121^V600E-ER (Mus musculus, UniProt P19785, G525R); settings: NIH 3T3 ΔTASK121^V600E-ER cells, minimal media, 0-2000 nM 4OHT for 24 hours
Excerpt: (§1) To identify genes that are regulated specifically in response to TASK121 activation and not as a result of full mitogenic stimulation, TASK121 was conditionally activated using the previously described estrogen receptor (ER) fusion protein system (Samuels et al., Mol Cell Biol 13:6241-52 (1993)). The catalytic domains of wild-type and oncogenic human TASK121 (denoted as ΔTASK121 and ΔTASK121^V600E, respectively) were fused to a variant of the murine ER hormone-binding domain in which a G525R mutation switches responsiveness from endogenous estrogen to a synthetic antagonist, 4-hydroxytamoxifen (4OHT) (Danielian, et al., Mol Endocrinol 7:232-40 (1993)). […] NIH 3T3 cells expressing ΔTASK121-ER, ΔTASK121^V600E-ER or empty vector were derived by retroviral infection and several independent clones were characterized to ensure against a clonal selection bias. To determine effective doses for inducing TASK121 kinase activity, ΔTASK121-ER and ΔTASK121^V600EER cells were cultured in minimal media and stimulated with 0-2000 nM 4OHT for 24 hours. […] Accumulation of ΔTASK121-ER and ΔTASK121^V600E-ER chimeric proteins and corresponding ERK1/2 phosphorylation were detected by immunoblotting.

[5] = biological target: ΔTASK121-ER (Mus musculus, UniProt P19785, G525R); settings: NIH 3T3 ΔTASK121-ER cells, minimal media, 0-2000 nM 4OHT for 24 hours
Excerpt: as §1

[6] = test system: endogenous TASK121; experiment: Dox-induced shRNA knockdown in A375 melanoma cells, immunoblotting; type: cell-based
Excerpt: The regulation of TASK122 by TASK 121 was directly addressed in an RNAi knockdown experiment. A375 melanoma cells, which contain an endogenous TASK121^V600E allele, were infected with a retrovirus expressing either TASK121 specific shRNAs or a control firefly Luciferase shRNA. Hairpin oligonucleotides used in this study are as follows:
In this system, the Tet repressor protein binds a modified polIII promoter thereby preventing shRNA expression. However, in the presence of a tetracycline analog, doxycycline (Dox), the Tet repressor protein is released from the promoter resulting in shRNA transcription and knockdown of endogenous TASK121 or luciferase expression.

[7] = 10 μM U0126, A375, 928-MEL, COL0205 and SK23-MEL cell lines

ΔTASK121-ER, sequence (P19785 315-551 G525R limits assumed): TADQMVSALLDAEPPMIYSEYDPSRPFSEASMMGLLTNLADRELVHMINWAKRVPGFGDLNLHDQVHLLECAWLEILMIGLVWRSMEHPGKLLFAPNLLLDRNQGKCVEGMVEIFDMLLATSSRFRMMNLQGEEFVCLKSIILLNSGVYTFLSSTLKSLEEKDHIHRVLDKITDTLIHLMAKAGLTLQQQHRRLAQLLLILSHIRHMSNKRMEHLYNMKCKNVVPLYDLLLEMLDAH
ΔTASK121-ER, sequence (P15056 457-717 partner limits assumed): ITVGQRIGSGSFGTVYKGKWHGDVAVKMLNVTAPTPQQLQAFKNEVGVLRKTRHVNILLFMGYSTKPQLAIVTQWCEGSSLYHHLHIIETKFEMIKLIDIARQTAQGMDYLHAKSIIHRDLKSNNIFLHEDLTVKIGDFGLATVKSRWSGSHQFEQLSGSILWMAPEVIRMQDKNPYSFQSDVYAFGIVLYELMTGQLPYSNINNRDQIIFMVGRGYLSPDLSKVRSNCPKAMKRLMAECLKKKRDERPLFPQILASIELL
ΔTASK121^V600E-ER, sequence (P19785 315-551 G525R): as the sequence (P19785 315-551 G525R limits assumed) above
ΔTASK121^V600E-ER, sequence (P15056 457-717 V600E partner limits assumed): as the sequence (P15056 457-717 partner limits assumed) above, with V144E counted along it

For Cl.Cn1cc(C2=C(c3cn(C4CCN(Cc5ccccn5)CC4)c4ccccc34)C(=O)NC2=O)c2ccccc21 [317615-HCL], the anti-tumor effect [1] is listed as “anti-tumor effect”.

For N#CC(=C(/N)Sc1ccccc1N)/C(C#N)=C(\N)Sc1ccccc1N [U0126], the TASK122 expression ([2]; 10 μM U0126, inhibition of ERK1/2 phosphorylation) was “abolished”, the ERK1/2 phosphorylation [2, 7] was “decreased” and the “total ERK2 levels” value [2, 7] was “unaffected”.

For 4-hydroxytamoxifen [4OHT], the cell morphology [3] was “refractile and spindle-shaped phenotype”, the “4OHT concentration at which TASK121-mediated signaling was maximal” value [4] was 10 nM and the “4OHT concentration at which TASK121-mediated signaling was maximal” value [5] was 100 nM.

B1: TASK121 shRNA: hairpin oligonucleotides SEQ ID NO: 7 (sense) and SEQ ID NO: 8 (antisense), retrovirally expressed, Tet-regulated (nucleic acid)
sense: GATCCCCAGAATTGGATCTGGATCATTTCAAGAGAATGATCCAGATCCAATTCTTTTTTTGGAAA
antisense: AGCTTTTCCAAAAAAAGAATTGGATCTGGATCATTCTCTTGAAATGATCCAGATCCAATTCTGGG
modifications: the letters are possibly those of the target site
For B1, the TASK122 levels [6] was “significant reduction”, the “phosphorylated ERK1/2” value [6] was “significant reduction” and the “total ERK2 levels” value [6] was “remained unchanged”.

B2: Luciferase shRNA: control firefly Luciferase shRNA, SEQ ID NO: 9 (sense) and 10 (antisense) (nucleic acid)
sense: GATCCCCCTTACGCTGAGTACTTCGATTCAAGAGATCGAAGTACTCAGCGTAAGTTTTTTGGAAA
antisense: AGCTTTTCCAAAAAACTTACGCTGAGTACTTCGATCTCTTGAATCGAAGTACTCAGCGTAAGGGG
modifications: the letters are possibly those of the target site
With B2 the TASK122 levels [6] was “did not alter”.
